{"source": "paper PMC2723721", "about": "(Bioorganic & medicinal chemistry, 2009)", "target": "p47phox (Homo sapiens, UniProt P14598)", "sequence (P13498 2-195)": "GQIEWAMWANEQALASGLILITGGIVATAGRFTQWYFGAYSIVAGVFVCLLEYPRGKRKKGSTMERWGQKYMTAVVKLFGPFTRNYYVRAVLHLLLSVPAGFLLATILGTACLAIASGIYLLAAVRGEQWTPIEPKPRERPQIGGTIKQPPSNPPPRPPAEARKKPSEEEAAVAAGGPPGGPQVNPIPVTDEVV", "sequence (P14598 whole entry)": "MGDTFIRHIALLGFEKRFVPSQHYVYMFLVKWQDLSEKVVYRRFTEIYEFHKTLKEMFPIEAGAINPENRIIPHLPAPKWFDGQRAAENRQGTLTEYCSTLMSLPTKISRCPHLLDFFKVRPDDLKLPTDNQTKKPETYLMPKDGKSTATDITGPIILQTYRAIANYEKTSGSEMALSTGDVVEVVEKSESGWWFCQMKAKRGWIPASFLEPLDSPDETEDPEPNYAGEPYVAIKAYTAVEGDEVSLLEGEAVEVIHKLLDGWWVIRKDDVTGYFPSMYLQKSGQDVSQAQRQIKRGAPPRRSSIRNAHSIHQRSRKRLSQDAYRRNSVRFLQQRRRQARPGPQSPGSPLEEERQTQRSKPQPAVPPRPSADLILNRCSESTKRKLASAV", "assay": "ELISA: his-p47phox binding to immobilized biotin-p22phox peptide with […] IAA", "type": "biochemical", "data": [{"compound": "NC(=O)CI", "note": "[IAA, iodoacetamide]", "values": [{"measurement": "% drop in bound p47phox at 1 μM", "value": "> 50 % drop in bound p47phox at 1 μM"}]}]}
